Data on one compound can be found in PMC11904481 (ESMO Open, 2025).

Series [1] has as its system patient-derived xenograft (PDX) models of esophageal squamous cell carcinoma. The following applies: cited from earlier work.
A further series deals with ERK1/2. The following applies: cell lines; cited from earlier work.
The target in series [2] is human ether-a-go-go-related gene (hERG) potassium channel (Homo sapiens, UniProt Q12809). In words: hERG potassium channel inhibition. Type of series: biochemical.
Sequence of human ether-a-go-go-related gene (hERG) potassium channel (Q12809 whole entry): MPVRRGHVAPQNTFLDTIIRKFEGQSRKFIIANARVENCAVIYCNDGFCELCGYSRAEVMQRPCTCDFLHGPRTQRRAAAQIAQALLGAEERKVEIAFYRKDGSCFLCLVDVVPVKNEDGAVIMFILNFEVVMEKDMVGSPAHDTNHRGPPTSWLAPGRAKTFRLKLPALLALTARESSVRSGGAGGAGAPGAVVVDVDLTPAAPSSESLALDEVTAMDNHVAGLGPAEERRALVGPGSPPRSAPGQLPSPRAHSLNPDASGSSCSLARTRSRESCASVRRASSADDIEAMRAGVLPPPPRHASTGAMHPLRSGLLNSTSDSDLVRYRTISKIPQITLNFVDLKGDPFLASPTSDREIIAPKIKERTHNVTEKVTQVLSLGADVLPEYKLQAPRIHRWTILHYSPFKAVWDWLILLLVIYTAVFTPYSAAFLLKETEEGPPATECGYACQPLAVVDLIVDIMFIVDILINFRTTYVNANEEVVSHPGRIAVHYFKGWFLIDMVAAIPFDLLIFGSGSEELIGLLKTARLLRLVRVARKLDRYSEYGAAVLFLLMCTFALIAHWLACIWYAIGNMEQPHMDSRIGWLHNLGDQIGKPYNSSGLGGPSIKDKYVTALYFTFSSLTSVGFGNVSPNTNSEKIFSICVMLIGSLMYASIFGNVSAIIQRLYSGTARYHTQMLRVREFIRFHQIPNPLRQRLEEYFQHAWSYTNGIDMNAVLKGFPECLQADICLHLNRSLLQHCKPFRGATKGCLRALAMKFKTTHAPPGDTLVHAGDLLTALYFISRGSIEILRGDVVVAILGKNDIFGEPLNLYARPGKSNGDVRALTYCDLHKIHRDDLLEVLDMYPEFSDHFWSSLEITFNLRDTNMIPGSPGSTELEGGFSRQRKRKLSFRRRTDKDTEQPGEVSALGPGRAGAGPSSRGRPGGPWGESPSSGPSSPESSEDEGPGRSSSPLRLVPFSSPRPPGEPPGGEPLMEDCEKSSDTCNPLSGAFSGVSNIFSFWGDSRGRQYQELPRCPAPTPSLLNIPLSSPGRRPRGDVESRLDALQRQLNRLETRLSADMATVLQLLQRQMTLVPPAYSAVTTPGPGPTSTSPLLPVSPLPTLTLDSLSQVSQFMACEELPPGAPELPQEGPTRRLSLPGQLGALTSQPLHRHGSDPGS
Setting [3] is: 11q13-amplified (11q-AMP) PDX models of esophageal SCC.
The mark [4] stands for this setting: 11q13WT PDX models of esophageal SCC.

Where two headings read alike, the source gives them in different places.

Regarding `O=C1Nc2cc3[nH]nc(-c4ccncc4)c3cc2CN1Cc1ccccc1` [KO-947], in series [1] (setting [3]), the disease control rate is recorded as 77% and the overall response rate is given as 51%. Further, in series [1] (setting [4]), the disease control rate is listed as 21% and the overall response rate is listed as 3%. The “inhibition of signaling following washout” value in the series with ERK1/2 is reported as more than 4 h. The same compound registered a 50% inhibitory concentration (IC50) in series [2] of 4.4 µM. Further, the “mean free Cmax relative to hERG IC50” value in series [2] (overall study) is recorded as “about one-tenth”.

One may read the IC50 as the concentration that inhibits the measured activity by half. The low end stands for higher potency, the high end for lower potency.
